# Measurements reported in a melting point compilation (Tetko et al.).
row,Structure (SMILES),melting point [°C]
1,CC(C)N1C2CCCC1CC(O)C2 (stereo unspecified),59 to 61
2,CCCCn1c(=O)[nH]c(=O)c2c1nc(CCl)n2C,222 to 224
3,CCOC(=O)c1nc(-c2cccs2)oc1N,164 to 166
4,NC(=NO)c1ccnc(N2CCCCC2)c1,179 to 181
5,O=c1cc(CO)nc2ccc(Br)cn12,204 to 206
6,CCc1nsc(S)n1,144 to 146
7,COc1cc(C=O)cc(Cl)c1OCC(N)=O,166 to 170
8,NC(=O)c1cncn1-c1ccccc1,182 to 184
9,CCOC(=O)c1cc(C)cc(Br)c1N,44 to 46
10,OCC(c1ccc(Br)cc1)N1CCNCC1 (stereo unspecified),109 to 111
11,FC(F)Oc1ccccc1-c1noc(CCl)n1,< 17
12,Nc1cc(-c2ccsc2)n[nH]1,127 to 129
13,CCn1cc(S(=O)(=O)Cl)nc1C,65 to 67
14,O=S(=O)(Cl)N1CCCC2CCCCC21 (stereo unspecified),34 to 36
15,CCOC(=O)C(C#N)C(N)=O (stereo unspecified),152 to 154
16,COc1ccc(CCNc2nnc(S)s2)cc1OC,189 to 191
17,NC(=S)COc1ccccc1,111 to 115
18,O=Cc1cc(C(=O)O)co1,165 to 167

row,Structure (SMILES),melting point [°C]
1,O=C(O)c1cc(-c2cccc3ccccc23)nc2ccccc12,225 to 227
2,O=C1c2ccccc2C(=O)N1CC1(CO)CCCC1,83 to 85
3,CC(C)(C)c1ccc(=O)[nH]n1,163 to 165
4,Cc1ccc(-c2nn(-c3ccccc3)cc2C=O)o1,112 to 114
5,Nc1nnc(-c2ccsc2)s1,211 to 213
6,CC(c1cc(Cl)ccc1Cl)n1nccc1N (stereo unspecified),94 to 96
7,N#Cc1ccc(Cl)cc1NCC1CC1,52 to 54
8,CC1CCC2(CC1)COC(=O)N2 (stereo unspecified),126 to 128
9,O=C(CC1SC(N2CCCCC2)=NC1=O)Nc1cccc(C(=O)O)c1 (stereo unspecified),188 to 190
10,COc1ccccc1Nc1nc(-c2ccc(C)cc2)cs1,143 to 145
11,CCOC(=O)CNc1cc(Cl)cc(Cl)c1,99 to 101
12,COc1ccc2c(c1)CNC(c1ccccc1)C2 (stereo unspecified),90 to 92
13,Cc1nn(CC(C)C)c(C)c1CC(=O)O,106 to 110
14,O=C(O)CC1SC(=NN=Cc2ccc(Br)s2)NC1=O (stereo unspecified),278 to 280
15,COc1ccc(-c2csc(NC(=O)C(C)Cl)n2)cc1 (stereo unspecified),124 to 126
16,CCCC(C)C(N)C(=O)O (stereo unspecified),259 to 261
17,NCCc1c[nH]c2cc(F)ccc12,74 to 76
18,NC(=O)c1cc(CCO)c(C(F)(F)F)[nH]c1=O,230 to 232

# Continued, values first:
row,melting point [°C],Structure (SMILES)
1,83 to 85,NC(=O)CCCC(=O)O
2,228 to 230,O=C(O)C(NCc1ccccc1)C1CC1 (stereo unspecified)
3,259 to 261,O=C(O)c1ccc(N2CCCC2)c([N+](=O)[O-])c1
4,156 to 158,O=C(O)c1cc(OCC(F)(F)F)ccc1[N+](=O)[O-]
5,250 to 252,CCc1ccc(Nc2nnc(SCC(=O)O)s2)cc1
6,158 to 160,Cc1nnc(-c2ccccc2C(=O)O)o1
7,158 to 160,CC(=O)Nc1nc(C)c(S(=O)(=O)Cl)s1
8,148 to 150,CCC(C(=O)Nc1cccc(C(N)=S)c1)c1ccccc1 (stereo unspecified)
9,119 to 121,CCS(=O)(=O)c1ccc(CCC(=O)O)cc1
10,98 to 100,O=C(O)CCS(=O)(=O)C1CCCC1
11,114 to 116,Cn1ncnc1COc1ccc(S(=O)(=O)Cl)cc1
12,95 to 97,CCSc1cccc(C(=O)O)c1
13,89 to 91,O=C(O)C1CC1c1cccc(Cl)c1 (stereo unspecified)
14,101 to 103,CN(CC(=O)O)C(=O)c1cccs1
15,63 to 67,COC(=O)c1ccc(C(=O)OC)c(S(=O)(=O)Cl)c1
16,104 to 106,CN(C)S(=O)(=O)c1ccc(F)c(N)c1
17,127 to 129,O=C(O)CCOc1ccc(Cl)cc1[N+](=O)[O-]
18,260 to 262,O=C(O)c1[nH]nc(-c2ccccc2)c1Br
19,250 to 252,O=C(Nc1cc(Cl)ccc1C(=O)O)c1ccc(F)cc1
20,127 to 129,Cc1cccc(C(=O)O)c1-n1cccc1
